Results: patent US4404217A, “3-Indolyl alkylene amino propanols and cardiovascular compositions thereof” (C. M. Industries, priority 1979, dated 1983)
Read-outs that look alike come from different tables or passages of the source.

Experiments:
[1] = Cardiac frequency and arterial pressure in the anaesthetized dog after intravenous injection; format: in vivo; settings: i.v. route, anaesthetised dog
Procedure: (§1) The dog is anaesthetized using sodium pentobarbital, administered by the IV route at a dose of 30 mg/kg. A cannula placed in the saphenous vein allows the intra-venous injections of the products. The animal is submitted to intubation and is allowed to breathe spontaneously.
(§2) The cardiac frequency and the systemic arterial pressure are studied and the variations of these parameters are observed after intra-venous injection of the product to be tested. Each product is tested with increasing doses.

β2 receptors = molecular target: T1, β2 receptors (Rattus norvegicus, UniProt P10608); experiment: Displacement of 3H dihydroalprenolol, plasmic membranes of lungs of rats; format: binding
T1 construct: lungs of rats (β2 receptors); from tissue; host or cells: rat lung plasma membranes
T1 sequence (P10608 whole entry): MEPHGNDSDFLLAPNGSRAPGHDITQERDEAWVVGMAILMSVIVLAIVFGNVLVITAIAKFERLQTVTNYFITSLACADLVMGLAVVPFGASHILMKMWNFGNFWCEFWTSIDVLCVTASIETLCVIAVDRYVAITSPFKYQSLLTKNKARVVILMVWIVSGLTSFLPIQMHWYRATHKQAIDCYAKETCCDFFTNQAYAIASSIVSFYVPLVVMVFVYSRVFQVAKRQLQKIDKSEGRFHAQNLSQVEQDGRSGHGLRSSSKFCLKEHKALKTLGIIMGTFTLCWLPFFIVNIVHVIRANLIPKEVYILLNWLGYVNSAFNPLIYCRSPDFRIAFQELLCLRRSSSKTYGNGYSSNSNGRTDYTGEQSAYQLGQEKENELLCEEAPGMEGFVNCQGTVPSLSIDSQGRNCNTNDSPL
Procedure: (§3) The binding tests are effected on suspensions of plasmic membranes coming from various organs. The suspensions of membranes are placed in incubation with the tritiated ligand and various concentrations of products to be tested. After incubation, each test is filtered on GFB(Whatman) filter, the filters are dried and introduced into counting flasks. The measurement of the radioactivity is assessed by scintillation in a liquid medium.
(§4) The tests were made on plasmic membranes of hearts of dogs (β1 receptor) and lungs of rats (β2 receptors), in the presence of ^3 H dihydroalprenolol 4×10^-9 M.

α1 receptor = experiment: Displacement of 3H WB 4101, plasmic membranes of rat brains; format: binding; settings: for EC50: read-out: EC50 of DISPLACEMENT of 3H WB 4101, rat brain membranes, 3H WB4101 0.2×10^-9 M; for affinity for the receptor with WB 4101 (α1): in vitro
Procedure: as §3
(§5) The tests were made on plasmic membranes of rat brains, in the presence of ^3 H clonidine 1.2×10^-9 M (α2 receptor) and of ^3 H WB4101 (N-[2-(2.6dimethoxyphenoxy)ethyl]1.4benzodioxane-2-methylamine), 0.2×10^-9 M (α1 receptor).

[2] = molecular target: T2, β adrenergic receptors (β2) (Canis lupus familiaris, UniProt P54833); experiment: Antagonism of the effects of isoprenaline, hypotension (β2), anaesthetized dog, IV; format: in vivo; settings: read-out: ID50 ISOPRENALINE β2
T2 construct: The dog is anaesthetized using sodium pentobarbital; from tissue; host or cells: whole anaesthetized dog (vasculature)
T2 sequence (P54833 whole entry): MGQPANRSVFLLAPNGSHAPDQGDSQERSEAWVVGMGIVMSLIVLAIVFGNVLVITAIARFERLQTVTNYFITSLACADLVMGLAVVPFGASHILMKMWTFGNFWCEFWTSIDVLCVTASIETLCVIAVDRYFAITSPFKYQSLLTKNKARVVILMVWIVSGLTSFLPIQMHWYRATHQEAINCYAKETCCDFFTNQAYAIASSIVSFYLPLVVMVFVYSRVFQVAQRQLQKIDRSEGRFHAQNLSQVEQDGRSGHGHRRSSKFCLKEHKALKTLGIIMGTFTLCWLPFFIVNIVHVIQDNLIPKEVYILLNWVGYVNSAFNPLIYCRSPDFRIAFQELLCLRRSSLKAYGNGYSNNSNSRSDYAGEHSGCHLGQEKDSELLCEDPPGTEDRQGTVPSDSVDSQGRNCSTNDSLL
Procedure: as §1, §2
The antagonism of the products with respect to the β stimulant cardio-vascular effects of isoprenaline on the β adrenergic receptors has been sought. […] The last column indicates the cardioselectivity (β1 >β2) or a low cardioselectivity β1 ≥β2, or no cardioselectivity β1 <β2 and β1 =β2.

β1 receptor = molecular target: T3, β1 receptor (Canis lupus familiaris, UniProt P79148); experiment: Displacement of 3H dihydroalprenolol, plasmic membranes of hearts of dogs; format: binding, dog; settings: for affinity for β1 receptors (heart) versus β2 receptors (lungs): in vitro, compared with lung β2 (A5)
T3 construct: plasmic membranes of hearts of dogs (β1 receptor); from tissue; host or cells: dog heart plasma membranes
T3 sequence (P79148 whole entry): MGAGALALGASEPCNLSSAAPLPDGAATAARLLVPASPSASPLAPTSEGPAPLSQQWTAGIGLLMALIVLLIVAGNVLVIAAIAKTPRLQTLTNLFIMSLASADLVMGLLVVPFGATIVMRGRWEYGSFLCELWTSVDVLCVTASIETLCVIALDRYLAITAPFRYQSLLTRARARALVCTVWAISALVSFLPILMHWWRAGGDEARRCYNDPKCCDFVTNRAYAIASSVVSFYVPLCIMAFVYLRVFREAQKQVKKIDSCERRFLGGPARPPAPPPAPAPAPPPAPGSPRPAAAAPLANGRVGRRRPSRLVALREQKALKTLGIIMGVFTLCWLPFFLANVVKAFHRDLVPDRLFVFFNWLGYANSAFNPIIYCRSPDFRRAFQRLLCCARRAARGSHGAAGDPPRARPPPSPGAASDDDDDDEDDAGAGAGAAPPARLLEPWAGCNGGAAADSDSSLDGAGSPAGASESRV
Procedure: as §3, §4

α2 receptor = molecular target: T4, α2 receptor (Rattus norvegicus, UniProt P22909); experiment: Displacement of 3H clonidine, plasmic membranes of rat brains; format: binding; settings: for affinity for the receptor with clonidine (α2): in vitro
T4 construct: plasmic membranes of rat brains; from tissue; host or cells: rat brain plasma membranes
T4 sequence (P22909 1-465): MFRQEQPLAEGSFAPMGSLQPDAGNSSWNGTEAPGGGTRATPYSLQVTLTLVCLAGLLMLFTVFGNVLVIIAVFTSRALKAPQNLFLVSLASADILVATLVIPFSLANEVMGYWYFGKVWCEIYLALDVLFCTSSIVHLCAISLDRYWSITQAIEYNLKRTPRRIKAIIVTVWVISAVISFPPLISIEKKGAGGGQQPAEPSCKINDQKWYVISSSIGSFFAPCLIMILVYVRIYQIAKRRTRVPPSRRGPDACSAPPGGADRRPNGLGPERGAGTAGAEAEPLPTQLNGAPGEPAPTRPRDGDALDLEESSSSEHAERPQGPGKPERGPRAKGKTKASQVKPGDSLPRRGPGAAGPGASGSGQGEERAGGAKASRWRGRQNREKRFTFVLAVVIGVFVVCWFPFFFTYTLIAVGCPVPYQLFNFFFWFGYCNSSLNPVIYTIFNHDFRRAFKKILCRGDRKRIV
Procedure: as §3, §5

α adrenergic receptors = experiment: Antagonism of the effects of noradrenaline (pressure response), anaesthetized dog, IV; format: in vivo; settings: 50% inhibition of pressure response to noradrenaline
Procedure: as §1, §2
The antagonism of the products with respect to the vascular effects provoked by the IV administration of noradrenaline on the α adrenergic receptors has been sought. The results presented in Table III are expressed in ID50 : it is the dose (mg/kg) which provokes the inhibition by 50% of the pressure response due to the IV administration of noradrenaline.

[3] = molecular target: T5, β adrenergic receptors (β1) (Canis lupus familiaris, UniProt P79148); experiment: Antagonism of the effects of isoprenaline, tachycardia (β1), anaesthetized dog, IV; format: in vivo; settings: for ED50 / cardioselectivity β1 - β2: dog; for ED50: read-out: ID50 ISOPRENALINE β1; for cardioselectivity β1 - β2: isoprenaline antagonism, β1 versus β2; for cardioselective in vivo (selectively inhibit the cardiac receptors): test with isoprenaline
T5 construct: The dog is anaesthetized using sodium pentobarbital; from tissue; host or cells: whole anaesthetized dog (heart)
T5 sequence (P79148 whole entry): as the sequence (P79148 whole entry) above

platelet aggregation = experiment: Anti-aggregating activity, BORN technique, plasma rich in platelets, ADP; format: cell-based, human; settings: human platelet-rich plasma; for IC50: ADP, range over all products tested, read-out: concentration for inhibiting by 50% the maximum rate of aggregation
Procedure: The anti-aggregating activity of the CM 7743, 7744, 7824, 7854, 7859 and 7874 has been studied according to the BORN technique on plasma rich in platelets of human origin. ADP has been used as indicator of platelet aggregation. […] The required concentration for inhibiting by 50% the maximum rate of aggregation varies from 45 to 100 μM.

[4] = IV, 50% inhibition of isoprenaline hypotension
[5] = IV, 50% inhibition of isoprenaline tachycardia
[6] = rat brain membranes, 3H clonidine 1.2×10^-9 M
[7] = dog heart membranes, 3H dihydroalprenolol 4×10^-9 M
[8] = rat lung membranes, 3H dihydroalprenolol 4×10^-9 M

ED50 [2, 4] [mg/kg] | ED50 [3, 5] [mg/kg] | EC50 (β1 receptor; [7]) [µM] | EC50 (β2 receptors; [8]) [µM] | SMILES | reduction in the peripheral arterial pressure [1] | EC50 (α1 receptor) [µM] | ID50 NORADRENALINE α (α adrenergic receptors) [mg/kg] | cardioselectivity β1 - β2 ([3]; IV) | affinity for the receptor with clonidine (α2) (α2 receptor) | ED50 ([3]; iv) [mg/kg] | cardioselective in vivo (selectively inhibit the cardiac receptors) [3] | EC50 (β2 receptors) [µM] | EC50 (β1 receptor) [µM] | further results
1 | 0.3 to 1 |  |  | Cc1ccccc1OCC(O)CNC(CO)Cc1c[nH]c2ccccc12 (racemic) [compound 7906] | reduction in the peripheral arterial pressure | 0.0011 | > 3 | β1 ≥ β2 (low cardioselectivity β1 ≥β2) |  |  |  |  |  | EC50 (β2 receptors; read-out: EC50 of DISPLACEMENT of 3H DIHYDROALPRENOLOL, Lung (β2), rat lung membranes, 3H dihydroalprenolol 4×10^-9 M): 0.155 µM; EC50 (β1 receptor; read-out: EC50 of DISPLACEMENT of 3H DIHYDROALPRENOLOL, Heart (β1), dog heart membranes, 3H dihydroalprenolol 4×10^-9 M): 0.215 µM; EC50 (α2 receptor; read-out: EC50 of DISPLACEMENT of 3H CLONIDINE, rat brain membranes, 3H clonidine 1.2×10^-9 M): 0.041 µM
 |  |  |  | CCC(=O)c1ccc(OCC(O)CNC(C)Cc2c[nH]c3ccccc23)c(Cl)c1 (stereo not shown) [compound 7743] |  |  | 3 | β1 ≥ β2 (low cardioselectivity β1 ≥β2) | no affinity | 1 to 3 |  |  |  | inhibition of the platelet response with respect to the ADP (platelet aggregation): inhibited the platelet response; IC50 (platelet aggregation): 45 to 100 µM; ED50 ([2]; iv): ≥ 3 mg/kg
> 3 | 1 to 3 |  |  | NC(=O)Cc1ccc(OCC(O)CNCCc2c[nH]c3ccccc23)cc1 (stereo not shown) [compound 7748] |  | 0.0027 | 1 | β1 > β2 (cardioselectivity (β1 >β2)) | no affinity |  | cardioselective in vivo |  |  | affinity for β1 receptors (heart) versus β2 receptors (lungs) (β1 receptor): clearly greater affinity for the β1 receptors (heart) than for the β2 receptors (lungs); EC50 (α2 receptor; [6]): 0.0295 µM
 |  |  |  | CC(Cc1c[nH]c2ccccc12)NCC(O)COc1ccccc1Cl (stereo not shown) [compound 7806] | reduction in the peripheral arterial pressure | 0.31 | 0.3 |  | no affinity | 0.3 |  | 0.012 | 0.0275 | affinity for the receptor with WB 4101 (α1) (α1 receptor): have an affinity; ED50 ([2]; iv): ≥ 0.1 mg/kg; EC50 (α2 receptor): 0.012 µM
0.02 to 0.1 | 0.01 to 0.1 | 0.016 | 0.0037 | Cc1ccccc1OCC(O)CNC(C)(C)Cc1c[nH]c2ccccc12 (stereo not shown) [compound 7854] |  | 0.32 | 0.1 | β1 ≥ β2 (low cardioselectivity β1 ≥β2) |  |  |  |  |  | inhibition of the platelet response with respect to the ADP (platelet aggregation): inhibited the platelet response; IC50 (platelet aggregation): 45 to 100 µM; EC50 (α2 receptor; [6]): 0.006 µM
0.3 to 1 | 0.1 to 0.3 | 0.051 | 0.064 | Cc1ccccc1OC[C@@H](O)CN[C@H](CO)Cc1c[nH]c2ccccc12 [compound 7898] | reduction in the peripheral arterial pressure |  | > 3 | β1 ≥ β2 (low cardioselectivity β1 ≥β2) |  |  |  |  |  | 
0.3 to 1 | 0.3 | 0.135 | 0.082 | Cc1ccccc1OC[C@@H](O)CN[C@@H](CO)Cc1c[nH]c2ccccc12 [compound 7899] | reduction in the peripheral arterial pressure |  | > 3 | β1 ≥ β2 (low cardioselectivity β1 ≥β2) |  |  |  |  |  | 
> 3 | > 3 | 7.4 | 3.8 | Cc1ccccc1OC[C@H](O)CN[C@@H](CO)Cc1c[nH]c2ccccc12 [compound 7902] | reduction in the peripheral arterial pressure |  | > 3 | β1 < β2 (no cardioselectivity β1 <β2) |  |  |  |  |  | 
 |  |  |  | Cc1ccccc1OCC(O)CNC(C)Cc1c[nH]c2ccc(F)cc12 (stereo not shown) [compound 7983] |  | 0.6 | > 0.3 | β1 > β2 (cardioselectivity (β1 >β2)) |  | 0.3 | cardioselective in vivo | 0.047 | 0.019 | affinity for the receptor with WB 4101 (α1) (α1 receptor): have an affinity; ED50 ([2]; iv): > 0.3 mg/kg

SMILES | ED50 [2, 4] [mg/kg] | ED50 [3, 5] [mg/kg] | EC50 (β1 receptor; [7]) [µM] | EC50 (β2 receptors; [8]) [µM] | reduction in the peripheral arterial pressure [1] | EC50 (α1 receptor) [µM] | ID50 NORADRENALINE α (α adrenergic receptors) [mg/kg] | cardioselectivity β1 - β2 ([3]; IV) | affinity for the receptor with clonidine (α2) (α2 receptor) | ED50 ([3]; iv) [mg/kg] | cardioselective in vivo (selectively inhibit the cardiac receptors) [3] | EC50 (β2 receptors) [µM] | EC50 (β1 receptor) [µM] | further results
Cc1cccc(OCC(O)CNC(C)Cc2c[nH]c3ccccc23)c1 (stereo not shown) [compound 7782] | ≥ 3 |  |  |  |  |  | 0.3 | β1 > β2 (cardioselectivity (β1 >β2)) | no affinity | 0.1 to 0.3 | cardioselective in vivo | 0.0615 | 0.053 | EC50 (α2 receptor; [6]): 0.03 µM
CCCC(=O)Nc1ccc(OCC(O)CNC(C)Cc2c[nH]c3ccccc23)c(C(C)=O)c1 (stereo not shown) [compound 7798] | ≥ 3 |  | 0.55 |  |  |  | > 3 | β1 > β2 (cardioselectivity (β1 >β2)) |  | 1 | cardioselective in vivo |  |  | affinity for β1 receptors (heart) versus β2 receptors (lungs) (β1 receptor): clearly greater affinity for the β1 receptors (heart) than for the β2 receptors (lungs)
CC(Cc1c[nH]c2ccc(Cl)cc12)NCC(O)COc1ccc(CC(N)=O)cc1 (stereo not shown) [compound 7859] | ≥ 3 |  | 0.625 | 1 |  | 0.0023 | 0.3 to 3 | β1 > β2 (cardioselectivity (β1 >β2)) | no affinity | 0.3 to 1 | cardioselective in vivo |  |  | inhibition of the platelet response with respect to the ADP (platelet aggregation): inhibited the platelet response; IC50 (platelet aggregation): 45 to 100 µM; EC50 (α2 receptor): 0.019 µM
CC(Cc1c[nH]c2ccccc12)NCC(O)COc1ccccc1C(=O)c1ccccc1 (stereo not shown) [compound 7904] | 0.1 |  |  |  |  |  | > 0.3 | β1 ≥ β2 (low cardioselectivity β1 ≥β2) |  | ≤ 0.1 |  | 0.014 | 0.0079 | 
CC(Cc1c[nH]c2ccc(F)cc12)NCC(O)COc1ccccc1 (stereo not shown) [compound 40038] | > 0.3 |  |  |  | reduction in the peripheral arterial pressure |  | 0.1 | β1 > β2 (cardioselectivity (β1 >β2)) | no affinity | 0.1 | cardioselective in vivo | 0.029 | 0.034 | 
